According to US8394789B2, “(Dihydro)pyrrolo[2,1-α]isoquinolines” (MSD Oss B.V., priority 2008, dated 2013):
pEC50: −log10 of the molar value.

Molecular target: T1, human FSH receptor (Homo sapiens, UniProt P23945)
T1 construct: expressed in transfected cells
T1 sequence (P23945 18-695): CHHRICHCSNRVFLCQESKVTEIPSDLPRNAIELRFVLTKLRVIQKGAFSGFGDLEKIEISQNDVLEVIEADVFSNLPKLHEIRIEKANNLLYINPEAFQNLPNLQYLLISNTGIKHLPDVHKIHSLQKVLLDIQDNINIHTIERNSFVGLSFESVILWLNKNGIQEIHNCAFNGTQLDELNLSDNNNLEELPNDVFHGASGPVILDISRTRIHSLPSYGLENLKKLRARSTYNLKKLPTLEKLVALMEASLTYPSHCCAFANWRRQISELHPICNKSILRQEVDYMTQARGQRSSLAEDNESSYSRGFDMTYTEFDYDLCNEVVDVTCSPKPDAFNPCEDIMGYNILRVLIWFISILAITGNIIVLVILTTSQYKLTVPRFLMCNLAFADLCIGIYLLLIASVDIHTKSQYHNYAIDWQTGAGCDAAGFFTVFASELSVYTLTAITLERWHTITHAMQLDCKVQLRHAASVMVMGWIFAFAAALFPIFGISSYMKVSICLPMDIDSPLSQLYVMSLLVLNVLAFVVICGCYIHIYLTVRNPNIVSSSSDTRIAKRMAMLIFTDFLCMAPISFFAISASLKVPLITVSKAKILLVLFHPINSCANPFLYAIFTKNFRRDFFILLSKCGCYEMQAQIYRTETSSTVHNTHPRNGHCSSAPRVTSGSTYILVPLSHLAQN
Experiment: hFSHRago (CHO luc): agonistic activity at the human FSH receptor expressed in CHO cells, CRE-luciferase reporter
Format: cell-based
Details: CHO cells stably transfected with human FSH receptor and CRE/luciferase reporter; 4 hours of incubation

Row | Compound | pEC50
1 | COc1cc2c(cc1OCCCOC1CCCCO1)-c1c(-c3cccs3)cc(C(=O)N(C)C(C)(C)C)n1CC2 (stereo not drawn) [Example 70c, 8-Methoxy-9-[3-(tetrahydro-pyran-2-yloxy)-propoxy]-1-thiophen-2-yl-5,6-dihydro-pyrrolo[2,1-α]isoquinoline-3-carboxylic acid tert-butyl-methyl-amide] | 6.81
2 | COc1cc2c(cc1C=C(F)F)-c1c(-c3cccs3)cc(C(=O)N(C)C(C)(C)C)n1CC2 [Example 93] | 8.52
3 | COc1cc2c(cc1OC(C)C)-c1c(-c3cccs3)cc(C(=O)N(C)C3C[C@@H]4CN(C(C)=O)C[C@@H]4C3)n1CC2 (stereo partly drawn) [Example 24, 9-Isopropoxy-8-methoxy-1-thiophen-2-yl-5,6-dihydro-pyrrolo[2,1-α]isoquinoline-3-carboxylic acid (2-acetyl-octahydro-cyclopenta[c]pyrrol-5(endo)-yl)-methyl-amide] | 6.72
4 | COc1cc2c(cc1OC(C)C)-c1c(C3CCCC3)cc(C(=O)NC(C)(C)C)n1CC2 [Example 50, 1-Cyclopentyl-9-isopropoxy-8-methoxy-5,6-dihydro-pyrrolo[2,1-α]isoquinoline-3-tert-butylamide] | 6.66
5 | COc1cc2c(cc1OC(F)F)-c1c(-c3nccs3)cc(C(=O)N(C)C(C)(C)C)n1CC2 [Example 113, 9-Difluoromethoxy-8-methoxy-1-thiazol-2-yl-5,6-dihydro-pyrrolo[2,1-α]isoquinoline-3-carboxylic acid tert-butyl-methyl-amide] | 7.40
6 | CCN(C(=O)c1cc(-c2cccs2)c2n1CCc1c-2cc(OC)c(OC)c1F)C(C)C [Example 115, 7-Fluoro-8,9-dimethoxy-1-thiophen-2-yl-5,6-dihydro-pyrrolo[2,1-α]isoquinoline-3-carboxylic acid ethyl-isopropyl-amide] | 6.03
7 | COc1cc2c(cc1OCCCN)-c1c(-c3cccs3)cc(C(=O)N(C)C(C)(C)C)n1CC2 [Example 70g, 9-(3-Amino-propoxy)-8-methoxy-1-thiophen-2-yl-5,6-dihydro-pyrrolo[2,1-α]iso-quinoline-3-carboxylic acid tert-butyl-methyl-amide] | 6.95
8 | CN(C(=O)c1cc(-c2cccs2)c2n1CCc1ccc(NS(=O)(=O)N(C)C)cc1-2)C(C)(C)C [Example 103, 9-Dimethylaminosulfonylamino-1-thiophen-2-yl-5,6-dihydro-pyrrolo[2,1-α]isoquinoline-3-carboxylic acid tert-butyl-methyl-amide] | 6.12
9 | COc1cc2c(cc1C=C(C)C)-c1c(-c3nccs3)cc(C(=O)N(C)C(C)(C)C)n1CC2 [Example 59, 8-Methoxy-9-(2-methyl-propenyl)-1-thiazol-2-yl-5,6-dihydro-pyrrolo[2,1-α]isoquinoline-3-carboxylic acid tert-butyl-methyl-amide] | 8.59
10 | COc1cc2c(cc1N1CCOCC1)-c1c(-c3cccs3)cc(C(=O)N(C)C(C)(C)C)n1CC2 [Example 56, 8-Methoxy-9-morpholin-4-yl-1-thiophen-2-yl-5,6-dihydro-pyrrolo[2,1-α]isoquinoline-3-carboxylic acid tert-butyl-methyl-amide] | 7.80
11 | COCc1cc2c(cc1OC)CCn1c(C(=O)N(C)C(C)(C)C)cc(-c3cccs3)c1-2 [Example 121b, 8-Methoxy-9-methoxymethyl-1-thiophen-2-yl-5,6-dihydro-pyrrolo[2,1-α]isoquinoline-3-carboxylic acid tert-butyl-methyl-amide] | 8.80
12 | COc1cc2c(cc1OCCSC)-c1c(-c3cccs3)cc(C(=O)N(C)C(C)(C)C)n1CC2 [Example 71, 8-Methoxy-9-(2-methylsulfanyl-ethoxy)-1-thiophen-2-yl-5,6-dihydro-pyrrolo[2,1-α]isoquinoline-3-carboxylic acid tert-butyl-methyl-amide] | 7.58

Results, then the molecule that gave them:

Row | pEC50 | Compound
13 | 7.79 | CCC1CCCN1C(=O)c1cc(-c2cccs2)c2n1CCc1cc(OC)c(OC(C)C)cc1-2 (stereo not drawn) [Example 27, (2-Ethyl-pyrrolidin-1-yl)-(9-isopropoxy-8-methoxy-1-thiophen-2-yl-5,6-dihydro-pyrrolo[2,1-α]isoquinolin-3-yl)-methanone]
14 | 9.52 | COc1cc2c(cc1OC(C)C)-c1c(-c3cccs3)c(C#N)c(C(=O)N3CCCN(C(=O)C4CCC4)CC3)n1CC2 [Example 7d, 3-(4-Cyclobutanecarbonyl-[1,4]diazepane-1-carbonyl)-9-isopropoxy-8-methoxy-1-thiophen-2-yl-5,6-dihydro-pyrrolo[2,1-α]isoquinoline-2-carbonitrile]
15 | 8.31 | COc1cc2ccn3c(C(=O)N4CCCN(C(=O)C5CCC5)CC4)cc(-c4cccs4)c3c2cc1OC [Example 111b, (4-Cyclobutanecarbonyl-[1,4]diazepan-1-yl)-(8,9-dimethoxy-1-thiophen-2-yl-pyrrolo[2,1-α]isoquinolin-3-yl)-methanone]
16 | 6.12 | COc1cc2c(cc1OC(C)C)-c1c(-c3cccs3)cc(C(=O)N3CCCC3c3cccc(F)c3)n1CC2 (stereo not drawn) [Example 28, [2-(3-Fluoro-phenyl)-pyrrolidin-1-yl]-(9-isopropoxy-8-methoxy-1-thiophen-2-yl-5,6-dihydro-pyrrolo[2,1-α]isoquinolin-3-yl)-methanone]
17 | 6.58 | CNCC(=O)N1CCCN(C(=O)c2cc(-c3cccs3)c3n2CCc2cc(OC)c(OC(C)C)cc2-3)CC1 [Example 6, 1-[4-(9-Isopropoxy-8-methoxy-1-thiophen-2-yl-5,6-dihydro-pyrrolo[2,1-α]isoquinoline-3-carbonyl)-[1,4]diazepan-1-yl]-2-methylamino-ethanone]
18 | 9.10 | CCCCN1CCN(C(=O)c2cc(-c3cccs3)c3n2CCc2cc(OC)c(OC(C)C)cc2-3)CCC1=O [Example 14a, 4-Butyl-1-(9-isopropoxy-8-methoxy-1-thiophen-2-yl-5,6-dihydro-pyrrolo[2,1-α]iso-quinoline-3-carbonyl)-[1,4]diazepan-5-one]
19 | 7.12 | C#Cc1cc(C(=O)N2CCCN(C(=O)c3ccccc3)CC2)n2c1-c1cc(OC)c(OC)cc1CC2 [Example 109, (4-Benzoyl-[1,4]diazepan-1-yl)-(1-ethynyl-8,9-dimethoxy-5,6-dihydro-pyrrolo[2,1-α]isoquinolin-3-yl)-methanone]
20 | 6.60 | COc1cc2c(cc1OC(C)C)-c1c(-c3cccs3)cc(C(=O)N3CC=CC3)n1CC2 [Example 15, (2,5-Dihydro-pyrrol-1-yl)-(9-isopropoxy-8-methoxy-1-thiophen-2-yl-5,6-dihydro-pyrrolo[2,1-α]isoquinolin-3-yl)-methanone]
21 | 8.34 | COc1cc2c(cc1OC(C)C)-c1c(-c3cccs3)cc(C(=O)N3CCCN(S(=O)(=O)c4cccs4)CC3)n1CC2 [Example 3, (9-Isopropoxy-8-methoxy-1-thiophen-2-yl-5,6-dihydro-pyrrolo[2,1-α]isoquinolin-3-yl)-[4-(thiophene-2-sulfonyl)-[1,4]diazepan-1-yl]-methanone]
22 | 5.85 | COc1cc2c(cc1OC(C)C)-c1c(-c3cccs3)cc(C(=O)N3CCCN(C(=O)CCN)CC3)n1CC2 [Example 5, 3-Amino-1-[4-(9-isopropoxy-8-methoxy-1-thiophen-2-yl-5,6-dihydro-pyrrolo[2,1-α]isoquinoline-3-carbonyl)-[1,4]diazepan-1-yl]-propan-1-one]
23 | 7.16 | COc1cc2c(cc1C(=O)N1CCOCC1)-c1c(-c3cccs3)cc(C(=O)N(C)C(C)(C)C)n1CC2 [Example 86]
24 | 6.20 | COc1cc2c(cc1OC(C)C)-c1c(-c3cccs3)cc(C(=O)N3CCCC3c3cccnc3)n1CC2 (stereo not drawn) [Example 29, (9-Isopropoxy-8-methoxy-1-thiophen-2-yl-5,6-dihydro-pyrrolo[2,1-α]isoquinolin-3-yl)-(2-pyridin-3-yl-pyrrolidin-1-yl)-methanone]
25 | 6.17 | COc1cc2c(cc1N1CCN(C(C)=O)CC1)-c1c(-c3cccs3)cc(C(=O)N(C)C(C)(C)C)n1CC2 [Example 53, 9-(4-Acetyl-piperazin-1-yl)-8-methoxy-1-thiophen-2-yl-5,6-dihydro-pyrrolo[2,1-α]isoquinoline-3-carboxylic acid tert-butyl-methyl-amide]
26 | 9.00 | COc1cc2c(cc1NS(C)(=O)=O)-c1c(-c3cccs3)cc(C(=O)N3CCCC3(C)C)n1CC2 [Example 100, N-[3-(2,2-Dimethyl-pyrrolidine-1-carbonyl)-8-methoxy-1-thiophen-2-yl-5,6-dihydro-pyrrolo[2,1-α]isoquinolin-9-yl]-methanesulfonamide]
27 | 8.85 | COc1cc2c(cc1OC(C)C)-c1c(-c3cccs3)cc(C(=O)N3CCCN(C(=O)C4(O)CCC4)CC3)n1CC2 [Example 10, [4-(1-Hydroxy-cyclobutanecarbonyl)-[1,4]diazepan-1-yl]-(9-isopropoxy-8-methoxy-1-thiophen-2-yl-5,6-dihydro-pyrrolo[2,1-α]isoquinolin-3-yl)-methanone]
28 | 8.54 | CCOC(=O)c1cc2c(cc1OC)CCn1c(C(=O)N3CCCN(C(=O)C4CCC4)CC3)cc(-c3cccs3)c1-2 [Example 84, 3-(4-Cyclobutanecarbonyl-[1,4]diazepane-1-carbonyl)-8-methoxy-1-thiophen-2-yl-5,6-dihydro-pyrrolo[2,1--α]isoquinoline-9-carboxylic acid ethyl ester]
